Reference: patent US20120121591A1 (priority 2009, published 2012)
Read-outs that look alike come from different tables or passages of the source.

Legend:
Assay type in all cases: cell-based
hKv1.3 = hKv1.3 (Homo sapiens, UniProt P22001); assay: cell-based; details: Kv1.3 (IWQ) IC50 (nM, Avg)
[1] = system: IL-2 secretion from T cells in human whole blood; details: read-out: WB (IL-2) IC50 (nM, Avg)
[2] = system: IFN-g secretion from T cells in human whole blood
[3] = read-out: WB (IFNg) IC50 (nM, Avg)

Chain of hKv1.3 (P22001 whole entry): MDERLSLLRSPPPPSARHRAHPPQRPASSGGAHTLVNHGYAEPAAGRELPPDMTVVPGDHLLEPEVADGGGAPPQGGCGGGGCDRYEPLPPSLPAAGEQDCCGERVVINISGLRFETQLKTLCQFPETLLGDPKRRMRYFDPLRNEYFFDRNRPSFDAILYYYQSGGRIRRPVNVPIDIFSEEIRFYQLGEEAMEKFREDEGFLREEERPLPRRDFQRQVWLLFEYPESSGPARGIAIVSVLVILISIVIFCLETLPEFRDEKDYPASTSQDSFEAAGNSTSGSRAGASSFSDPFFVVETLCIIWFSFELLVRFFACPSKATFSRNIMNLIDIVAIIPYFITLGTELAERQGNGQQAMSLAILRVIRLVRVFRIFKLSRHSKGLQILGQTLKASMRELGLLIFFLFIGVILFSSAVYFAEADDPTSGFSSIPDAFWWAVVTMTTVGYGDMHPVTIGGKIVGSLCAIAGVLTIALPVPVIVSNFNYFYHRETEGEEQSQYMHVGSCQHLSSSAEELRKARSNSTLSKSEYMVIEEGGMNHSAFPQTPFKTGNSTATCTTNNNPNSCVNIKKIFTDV

Compound	IC50 (hKv1.3) [nM]	IC50 [1] [nM]	IC50 [2, 3] [nM]	IC50 ([2]; read-out: WB (IFNg) IC5- (nM, Avg)) [nM]
CC[C@@H]1NC(=O)[C@H](CO)NC(=O)[C@H](Cc2c[nH]cn2)NC(=O)[C@H](CCCCN)NC(=O)[C@@H]2CSSC[C@@H]3NC(=O)[C@H]([C@@H](C)O)NC(=O)[C@H](CCCCN)NC(=O)[C@H](CCCNC(=N)N)NC(=O)[C@H](CSSC[C@H](NC(=O)[C@H](CCCNC(=N)N)NC(=O)[C@H](CO)NC(=O)[C@H](CCCCN)NC(=O)[C@@H]4CCCN4C(=O)[C@H]([C@@H](C)CC)NC(=O)[C@H]([C@@H](C)O)NC(=O)[C@H](CC(=O)O)NC(=O)[C@H]([C@@H](C)CC)NC(=O)[C@@H](NC(=O)[C@H](CO)NC(=O)[C@@H](N)CCCNC(=N)N)CSSC[C@@H](C(N)=O)NC(=O)[C@H]([C@@H](C)O)NC(=O)CNC3=O)C(=O)N[C@@H]([C@@H](C)O)C(=O)N[C@@H](C)C(=O)N[C@@H](Cc3ccccc3)C(=O)N[C@@H](CCCCN)C(=O)N2)NC(=O)[C@H](Cc2ccccc2)NC(=O)[C@H](CO)NC(=O)[C@H](CC(C)C)NC(=O)[C@H](CCCNC(=N)N)NC(=O)[C@H](Cc2ccc(O)cc2)NC(=O)[C@H](CCCCN)NC1=O [[Lys16, Abu21]ShK-amide]	0.246	1.2	1.53	–
CC[C@H](C)[C@@H]1NC(=O)[C@@H](NC(=O)[C@H](CO)NC(=O)[C@@H](N)CCCNC(=N)N)CSSC[C@@H](C(=O)O)NC(=O)[C@H]([C@@H](C)O)NC(=O)CNC(=O)[C@@H]2CSSC[C@@H]3NC(=O)[C@H](CCC(N)=O)NC(=O)[C@H](Cc4ccccc4)NC(=O)[C@H](C)NC(=O)[C@H]([C@@H](C)O)NC(=O)[C@H](CSSC[C@H](NC(=O)[C@H](Cc4ccccc4)NC(=O)[C@H](CO)NC(=O)[C@H](CC(C)C)NC(=O)[C@H](CCCNC(=N)N)NC(=O)[C@H](Cc4ccc(O)cc4)NC(=O)[C@H](CCCCN)NC(=O)[C@H](CCSC)NC(=O)[C@H](CO)NC(=O)[C@H](Cc4c[nH]cn4)NC(=O)[C@H](CCCCN)NC3=O)C(=O)N[C@@H](CCCNC(=N)N)C(=O)N[C@@H](CCCCN)C(=O)N[C@@H]([C@@H](C)O)C(=O)N2)NC(=O)[C@H](CCCNC(=N)N)NC(=O)[C@H](CO)NC(=O)[C@H](CCCCN)NC(=O)[C@@H]2CCCN2C(=O)[C@H]([C@@H](C)CC)NC(=O)[C@H](CCC(=O)O)NC(=O)[C@H](CC(=O)O)NC1=O [[Glu6]ShK]	0.17	0.073	–	0.109
CCCC[C@@H]1NC(=O)[C@H](CO)NC(=O)[C@H](Cc2c[nH]cn2)NC(=O)[C@H](CCCCN)NC(=O)[C@@H]2CSSC[C@@H]3NC(=O)[C@H]([C@@H](C)O)NC(=O)[C@H](CCCNC(=N)N)NC(=O)[C@H](CCCNC(=N)N)NC(=O)[C@H](CSSC[C@H](NC(=O)[C@H](CCCNC(=N)N)NC(=O)[C@H](CO)NC(=O)[C@H](CCCCN)NC(=O)[C@@H]4CCCN4C(=O)[C@H]([C@@H](C)CC)NC(=O)[C@H]([C@@H](C)O)NC(=O)[C@H](CC(=O)O)NC(=O)[C@H]([C@@H](C)CC)NC(=O)[C@@H](NC(=O)[C@H](CO)NC(=O)[C@@H](N)CCCNC(=N)N)CSSC[C@@H](C(N)=O)NC(=O)[C@H]([C@@H](C)O)NC(=O)CNC3=O)C(=O)N[C@@H]([C@@H](C)O)C(=O)N[C@@H](C)C(=O)N[C@@H](C)C(=O)N[C@@H](CCCCN)C(=O)N2)NC(=O)[C@H](Cc2ccccc2)NC(=O)[C@H](CO)NC(=O)[C@H](CC(C)C)NC(=O)[C@H](CCCNC(=N)N)NC(=O)[C@H](Cc2ccc(O)cc2)NC(=O)[C@H](CCCCN)NC1=O [[Ala15, Lys16, Nle21,Arg30]ShK-amide]	0.329	1.35	1.71	–
CC[C@H](C)[C@@H]1NC(=O)[C@@H](NC(=O)[C@H](CO)NC(=O)[C@@H](N)CCCNC(=N)N)CSSC[C@@H](C(=O)O)NC(=O)[C@H]([C@@H](C)O)NC(=O)CNC(=O)[C@@H]2CSSC[C@@H]3NC(=O)[C@H](CCC(N)=O)NC(=O)[C@H](Cc4ccccc4)NC(=O)[C@H](C)NC(=O)[C@H](CCCNC(=N)N)NC(=O)[C@H](CSSC[C@H](NC(=O)[C@H](Cc4ccccc4)NC(=O)[C@H](CO)NC(=O)[C@H](CC(C)C)NC(=O)[C@H](CCCNC(=N)N)NC(=O)[C@H](Cc4ccc(O)cc4)NC(=O)[C@H](CCCCN)NC(=O)[C@H](CCSC)NC(=O)[C@H](CO)NC(=O)[C@H](Cc4c[nH]cn4)NC(=O)[C@H](CCCCN)NC3=O)C(=O)N[C@@H](CCCNC(=N)N)C(=O)N[C@@H](CCCCN)C(=O)N[C@@H]([C@@H](C)O)C(=O)N2)NC(=O)[C@H](CCCNC(=N)N)NC(=O)[C@H](CO)NC(=O)[C@H](CCCCN)NC(=O)[C@@H]2CCCN2C(=O)[C@H]([C@@H](C)CC)NC(=O)[C@H]([C@@H](C)O)NC(=O)[C@H](CC(=O)O)NC1=O [[Arg13]ShK]	0.149	0.503	0.629	–
CC[C@H](C)[C@@H]1NC(=O)[C@@H](NC(=O)[C@H](Cc2cccc3ccccc23)NC(=O)[C@@H](N)CCCNC(=N)N)CSSC[C@@H](C(=O)O)NC(=O)[C@H]([C@@H](C)O)NC(=O)CNC(=O)[C@@H]2CSSC[C@@H]3NC(=O)[C@H](CCC(N)=O)NC(=O)[C@H](Cc4ccccc4)NC(=O)[C@H](C)NC(=O)[C@H]([C@@H](C)O)NC(=O)[C@H](CSSC[C@H](NC(=O)[C@H](Cc4ccccc4)NC(=O)[C@H](CO)NC(=O)[C@H](CC(C)C)NC(=O)[C@H](CCCNC(=N)N)NC(=O)[C@H](Cc4ccc(O)cc4)NC(=O)[C@H](CCCCN)NC(=O)[C@H](CCSC)NC(=O)[C@H](CO)NC(=O)[C@H](Cc4c[nH]cn4)NC(=O)[C@H](CCCCN)NC3=O)C(=O)N[C@@H](CCCNC(=N)N)C(=O)N[C@@H](CCCCN)C(=O)N[C@@H]([C@@H](C)O)C(=O)N2)NC(=O)[C@H](CCCNC(=N)N)NC(=O)[C@H](CO)NC(=O)[C@H](CCCCN)NC(=O)[C@@H]2CCCN2C(=O)[C@H]([C@@H](C)CC)NC(=O)[C@H]([C@@H](C)O)NC(=O)[C@H](CC(=O)O)NC1=O [[1-Nal2]ShK]	0.25	0.223	0.258	–
CC[C@H](C)[C@@H]1NC(=O)[C@@H](NC(=O)[C@H](CO)NC(=O)[C@@H](N)CCCNC(=N)N)CSSC[C@@H](C(=O)O)NC(=O)[C@H]([C@@H](C)O)NC(=O)CNC(=O)[C@@H]2CSSC[C@@H]3NC(=O)[C@H](CCC(N)=O)NC(=O)[C@H](Cc4ccccc4)NC(=O)[C@H](C)NC(=O)[C@H]([C@@H](C)O)NC(=O)[C@H](CSSC[C@H](NC(=O)[C@H](CCCCN)NC(=O)[C@H](CO)NC(=O)[C@H](CC(C)C)NC(=O)[C@H](CCCNC(=N)N)NC(=O)[C@H](Cc4ccc(O)cc4)NC(=O)[C@H](CCCCN)NC(=O)[C@H](CCSC)NC(=O)[C@H](CO)NC(=O)[C@H](Cc4c[nH]cn4)NC(=O)[C@H](CCCCN)NC3=O)C(=O)N[C@@H](CCCNC(=N)N)C(=O)N[C@@H](CCCCN)C(=O)N[C@@H]([C@@H](C)O)C(=O)N2)NC(=O)[C@H](CCCNC(=N)N)NC(=O)[C@H](CO)NC(=O)[C@H](CCCCN)NC(=O)[C@@H]2CCCN2C(=O)[C@H]([C@@H](C)CC)NC(=O)[C@H]([C@@H](C)O)NC(=O)[C@H](CC(=O)O)NC1=O [[Lys27]ShK]	0.928	3.48	11.8	–
CC[C@H](C)[C@@H]1NC(=O)[C@@H](NC(=O)[C@H](CO)NC(=O)[C@@H](N)CCCNC(=N)N)CSSC[C@@H](C(=O)O)NC(=O)[C@H]([C@@H](C)O)NC(=O)CNC(=O)[C@@H]2CSSC[C@@H]3NC(=O)[C@H](CCC(N)=O)NC(=O)[C@H](Cc4ccccc4)NC(=O)[C@H](C)NC(=O)[C@H]([C@@H](C)O)NC(=O)[C@H](CSSC[C@H](NC(=O)[C@H](Cc4ccccc4)NC(=O)[C@H](CO)NC(=O)[C@H](CC(C)C)NC(=O)[C@H](CCCNC(=N)N)NC(=O)[C@H](Cc4ccc(O)cc4)NC(=O)[C@H](CCCCN)NC(=O)[C@H](CCSC)NC(=O)[C@H](CO)NC(=O)[C@H](Cc4c[nH]cn4)NC(=O)[C@H](CCCCN)NC3=O)C(=O)N[C@@H](CCCNC(=N)N)C(=O)N[C@@H](CCCCN)C(=O)N[C@@H]([C@@H](C)O)C(=O)N2)NC(=O)[C@H](CCCNC(=N)N)NC(=O)[C@H](Cc2cccc3ccccc23)NC(=O)[C@H](CCCCN)NC(=O)[C@@H]2CCCN2C(=O)[C@H]([C@@H](C)CC)NC(=O)[C@H]([C@@H](C)O)NC(=O)[C@H](CC(=O)O)NC1=O [[1-Nal10]ShK]	0.206	0.205	0.255	–
CCCC[C@@H]1NC(=O)[C@H](CO)NC(=O)[C@H](Cc2c[nH]cn2)NC(=O)[C@H](CCCCN)NC(=O)[C@@H]2CSSC[C@@H]3NC(=O)[C@H]([C@@H](C)O)NC(=O)[C@H](CCCNC(=N)N)NC(=O)[C@H](CCCNC(=N)N)NC(=O)[C@H](CSSC[C@H](NC(=O)[C@H](CCCNC(=N)N)NC(=O)[C@H](CO)NC(=O)[C@H](CCCCN)NC(=O)[C@@H]4CCCN4C(=O)[C@H]([C@@H](C)CC)NC(=O)[C@H]([C@@H](C)O)NC(=O)[C@H](CC(=O)O)NC(=O)[C@H]([C@@H](C)CC)NC(=O)[C@@H](NC(=O)[C@H](CO)NC(=O)[C@@H](N)CCCNC(=N)N)CSSC[C@@H](C(N)=O)NC(=O)[C@H]([C@@H](C)O)NC(=O)CNC3=O)C(=O)N[C@@H]([C@@H](C)O)C(=O)N[C@@H](C)C(=O)N[C@@H](Cc3ccccc3)C(=O)N[C@@H](CCCCN)C(=O)N2)NC(=O)[C@H](Cc2ccccc2)NC(=O)[C@H](CO)NC(=O)[C@H](CC(C)C)NC(=O)[C@H](CCCNC(=N)N)NC(=O)[C@H](Cc2ccc(O)cc2)NC(=O)[C@H](CCCCN)NC1=O [[Lys16, Nle21,Arg30]ShK-amide]	0.423	0.953	1.9	–
